Literature values as cited in patent US10485808B2, “Selective progesterone receptor modulators (SPRM) and stabilized estrogen level in patient” (BAYER PHARMA AKTIENGESELLSCHAFT, priority 2017, dated 2019).
Where two headings read alike, the source gives them in different places.

Test system: patients with Uterine Fibroids (UF)
Details: cited from earlier work; for Patients with moderate to severe hot flushes: 12-13 weeks of treatment; for Serum estradiol levels after treatment: after 12-13 weeks treatment

CC(=O)O[C@]1(C(C)=O)CC[C@H]2[C@@H]3CCC4=CC(=O)CCC4=C3[C@@H](c3ccc(N(C)C)cc3)C[C@@]21C [Ulipristal acetate]
Patients with moderate to severe hot flushes (5 mg/day): 11%
Serum estradiol levels after treatment (5 mg/day): 64 pg/mL
Amenorrhoea rate (secondary endpoint) (5 mg/day): 75%
Hot flushes of any severity (5 mg): 26%
Patients with moderate to severe hot flushes (10 mg/day): 10%
Serum estradiol levels after treatment (10 mg/day): 61 pg/mL
Amenorrhoea rate (secondary endpoint) (10 mg/day): 89%
Hot flushes of any severity (10 mg): 24%
